Results reported in US20230144203A1 (SHANGHAI SENHUI MEDICINE CO., LTD., priority 2020, published 2023).
Read-outs that look alike come from different tables or passages of the source.

What was measured:
SKBR3 tumor cells = test: Test Example 1 in vitro cytotoxic activity screening (CTG); format: cell-based; conditions: Homo sapiens, SK-BR-3
Protocol: (§1) The CTG is used for detecting the ATP content in the experiment, and the survival condition of the tumor cells is reflected. […] The killing effect of the toxin molecule was then assayed according to this condition. 1.2. Selection of cell lines
(§2) According to the purpose of the experiment, two disease models of breast cancer and NSCLC were selected, and SKBR3 tumor cells (HER2+, ATCC, Cat #HTB-30), MDA-MB-468 (HER2-, ATCC, Cat #HTB-132) and A549 (human non-small cell lung cancer cells, ATCC, Cat #CCL-185) were selected for screening.
(§3) 2) Cell plating: A549 cells were digested with trypsin, and the cells were terminated with the above medium, and 4.3×10^5, 7.2×10^5 and 11.5×10^5 cells were added to the medium to give a final volume of 26 mL. 180 μL of cell suspension was added to each well in columns 2 to 11 of a 96-well plate (coming, Cat #3903) to give cell densities of 3K, 5K and 8K per well. Wells in column 12 were filled with 200 μL of culture medium and the remaining wells were filled with PBS. The above operations were repeated on the SKBR3 and MDA-MB-468 cells. The sample was duplicated.
(§4) 2 mM of stock solution (stock diluted 10-fold in DMSO) was prepared in column 1 of drug preparation plate 1, then 10-fold dilution in DMSO by gradient was performed in column 10, and the wells in column 11 were filled with DMSO. 95 μL of corresponding culture solution was added into each well from column 2 to column 11 of the drug preparation plate 2, 5 μL of solution was pipetted from column 2 to column 11 of drug preparation plate 1 to drug preparation plate 2, the solution was mixed well, 20 μL of solution was pipetted, added into the plated cells, and continuously cultured for 3 days and 5 days.
(§5) 4) CTG assay (Cell Titer-Glo™, luminescent cell viability assay, Promega): the cell plates were removed on day 3 and day 5, and balanced to room temperature. 90 μL of CTG was added into each well and reacted at room temperature for 10 min in the dark. The absorption value was read using a microplate reader and IC50 was calculated.

A549 [1] = test: as above; format: cell-based, human; conditions: Homo sapiens
Protocol: as §1, §2, §3, §4, §5

MDA-MB-468 [2] = test: as above; format: cell-based; conditions: Homo sapiens
Protocol: as §1, §2, §3, §4, §5

A549 [3] = test: Test Example 2 in vitro cytotoxic activity screening (CTG); format: cell-based; conditions: for IC50: Homo sapiens
Protocol: (§6) The CTG is used for detecting the ATP content in the experiment, and the survival condition of the tumor cells is reflected.
(§7) A549, SKBR3 and MDA-MB-468 were digested with trypsin, and each was resuspended in culture medium to a cell density of 2.2×10^4 cells/mL, and 135 μL of cell suspension was added to each well in columns 2 to 11 of a 96-well plate, and column 12 was set as blank control. The cells were incubated in an incubator for 24 h at 37° C. with 5% CO2.
(§8) a) Stock solution preparation: the test compound and positive control drug were dissolved in DMSO to give a stock solution at a concentration of 5 mM.
(§9) b) Drug preparation plate 1: stock solution in column 1 was initially diluted 40-fold, and 3-fold gradient dilutions were performed sequentially in column 2 to column 11. Column 12 was filled with DMSO.
(§10) c) Drug preparation plate 2: 196 μL of the corresponding culture medium was added into columns 2 to 11, and 4 μL of culture medium was pipetted from column 3 to column 12 of drug preparation plate 1 to column 2 to column 11 of drug preparation plate
(§11) 15 μL of culture medium was pipetted from the drug preparation plate 2 and added into the plated cells. The cells were continuously incubated in an incubator for 5 h at 37° C. with 5% CO2.
as §5, with “2.4)” for “4)”, “assay):” for “assay, Promega):”, “removed” for “removed on day 3 and day 5,”, “75” for “90”

MDA-MB-468 [4] = test: as above; format: cell-based; conditions: for IC50: Homo sapiens
Protocol: as §6, §7, §8, §9, §10, §11
as §5, with “2.4)” for “4)”, “assay):” for “assay, Promega):”, “removed” for “removed on day 3 and day 5,”, “75” for “90”

SKBR3 = test: as above; format: cell-based; conditions: for IC50: Homo sapiens
Protocol: as §6, §7, §8, §9, §10, §11
as §5, with “2.4)” for “4)”, “assay):” for “assay, Promega):”, “removed” for “removed on day 3 and day 5,”, “75” for “90”

[5] = MDA-MB-468, CTG, read-out: IC50
[6] = SK-BR-3, SKBR3, CTG, incubated 5 h, read-out: IC50

Compound	IC50 (SKBR3 tumor cells; SKBR3, CTG, read-out: IC50)	IC50 (A549 [1]; A549, CTG, read-out: IC50)	IC50 (MDA-MB-468 [2]; [5])	Maximum inhibition (A549 [3]; A549, CTG, incubated 5 h)	Maximum inhibition (MDA-MB-468 [4]; MDA-MB-468, CTG, incubated 5 h)	Maximum inhibition (SKBR3; SKBR3, CTG, incubated 5 h)	other results
C=C1C[C@@H]2CC[C@@]34C[C@H]5O[C@H]6[C@@H](O3)[C@H]3O[C@H](CC[C@@H]3O[C@H]6[C@H]5O4)CC(=O)C[C@@H]3[C@@H](OC)[C@@H](C[C@H](O)CNC(=O)C4(O)CC4)O[C@H]3C[C@H]3O[C@@H](CC[C@@H]1O2)C[C@@H](C)C3=C [Compound D-5]	0.383 nM	4.02 nM	–	–	–	–	–
C=C1C[C@@H]2CC[C@@]34C[C@H]5O[C@H]6[C@@H](O3)[C@H]3O[C@H](CC[C@@H]3O[C@H]6[C@H]5O4)CC(=O)C[C@@H]3[C@@H](OC)[C@@H](C[C@H](O)COC(=O)c4ccc(CO)cc4)O[C@H]3C[C@H]3O[C@@H](CC[C@@H]1O2)C[C@@H](C)C3=C [Compound D-8]	0.33 nM	0.811 nM	0.843 nM	–	–	–	–
C=C1C[C@@H]2CC[C@]34C[C@@H]5O[C@H]6[C@@H](O3)[C@@H]3O[C@H](CC[C@@H]3O[C@@H]6[C@H]5O4)CC(=O)C[C@@H]3[C@H](OC)[C@@H](C[C@H](O)CNC(=O)CO)O[C@H]3C[C@H]3O[C@@H](CC[C@@H]1O2)C[C@H](C)C3=C [Compound D-4]	1.3 nM	5.61 nM	1.78 nM	62.09%	89.43%	96.85%	IC50 (A549 [3]; A549, CTG, incubated 5 h, read-out: IC50): 3.08 nM; IC50 (MDA-MB-468 [4]; MDA-MB-468, CTG, incubated 5 h, read-out: IC50): 1.88 nM; IC50 (SKBR3; [6]): 1.09 nM
C=C1C[C@@H]2CC[C@@]34C[C@H]5O[C@H]6[C@@H](O3)[C@H]3O[C@H](CC[C@@H]3O[C@H]6[C@H]5O4)CC(=O)C[C@@H]3[C@@H](OC)[C@@H](C[C@H](O)COC(=O)[C@H](O)C4CC4)O[C@H]3C[C@H]3O[C@@H](CC[C@@H]1O2)C[C@@H](C)C3=C [Compound D-6]	0.294 nM	1.85 nM	0.996 nM	–	–	–	–
C=C1C[C@@H]2CC[C@@]34C[C@H]5O[C@H]6[C@@H](O3)[C@H]3O[C@H](CC[C@@H]3O[C@H]6[C@H]5O4)CC(=O)C[C@@H]3[C@@H](OC)[C@@H](C[C@@H](CNC(=O)[C@H](O)C4CC4)OC)O[C@H]3C[C@H]3O[C@@H](CC[C@@H]1O2)C[C@@H](C)C3=C [Compound D-3]	–	–	–	63.03%	90.94%	96.36%	IC50 (SKBR3 tumor cells): 1.36 nM; IC50 (MDA-MB-468 [2]; MDA-MB-468): 1.67 nM; IC50 (A549 [3]; A549, 5 h): 2.17 nM; IC50 (MDA-MB-468 [4]; MDA-MB-468, 5 h): 1.98 nM; IC50 (SKBR3; SK-BR-3, 5 h): 1.18 nM; IC50 (A549 [1]; A549): 5.14 nM
C=C1C[C@@H]2CC[C@@]34C[C@H]5O[C@H]6[C@@H](O3)[C@H]3O[C@H](CC[C@@H]3O[C@H]6[C@H]5O4)CC(=O)C[C@@H]3[C@@H](OC)[C@@H](C[C@H](O)CNC)O[C@H]3C[C@H]3O[C@@H](CC[C@@H]1O2)C[C@@H](C)C3=C [Compound E-305, reference compound]	–	–	–	61.27%	88.53%	96.42%	IC50 (A549 [3]; A549, 5 h): 2.1 nM; IC50 (MDA-MB-468 [4]; MDA-MB-468, 5 h): 1.17 nM; IC50 (SKBR3; [6]): 0.571 nM
C=C1C[C@@H]2CC[C@@]34C[C@H]5O[C@H]6[C@@H](O3)[C@H]3O[C@H](CC[C@@H]3O[C@H]6[C@H]5O4)CC(=O)C[C@@H]3[C@@H](OC)[C@@H](C[C@H](O)CNC(=O)[C@H](O)C4CC4)O[C@H]3C[C@H]3O[C@@H](CC[C@@H]1O2)C[C@@H](C)C3=C [Compound D-2]	0.839 nM	3.16 nM	0.909 nM	–	–	–	–
C=C1C[C@@H]2CC[C@@]34C[C@H]5O[C@H]6[C@@H](O3)[C@H]3O[C@H](CC[C@@H]3O[C@H]6[C@H]5O4)CC(=O)C[C@@H]3[C@@H](OC)[C@@H](C[C@H](O)COC(=O)C4(O)CC4)O[C@H]3C[C@H]3O[C@@H](CC[C@@H]1O2)C[C@@H](C)C3=C [Compound D-7]	0.481 nM	1.78 nM	0.903 nM	–	–	–	–
